Results reported in article PMC6136660 (Steroids, 2018).
Like-named read-outs stand apart in the source and are kept apart here.

Legend:
[1] = tested on: blood glucose (insulin resistance biomarker); experiment: Blood glucose / fasting insulin, MAD; assay type: in vivo, human; conditions: for Blood glucose: mean±SEM
Method: All biomarkers were analyzed using standard immunoassays by PRA.
Glucocorticoids were originally named as such due to their potent and acute effects on glucose metabolism, where liver and muscle pathways for insulin signaling are rapidly and profoundly affected, creating a state of insulin resistance. […] Fasting insulin and glucose levels were assessed in all dose groups in the vamorolone Phase 1 SAD and MAD.

[2] = Phase 1 multiple ascending dose (MAD) pharmacokinetics, 14 days once daily; assay type: in vivo, human; conditions: for CL/F: human, plasma, oral, read-out: CL/F, range of geometric mean values
Method: (§1) The MAD part of the study was initiated after a review of safety and PK data from SAD cohorts 1 to 6. In the MAD part, 4 cohorts containing 8 subjects each were randomized to receive vamorolone or placebo, in a 3:1 ratio, once daily (QD) for 14 days. The duration of dosing in the MAD part was determined based on the PK data from the SAD part. In each cohort, 3 sentinel subjects were administered vamorolone or placebo, in a 2:1 ratio.
The planned dose levels for the MAD part were 1.0 mg/kg (Cohort 1), 3.0 mg/kg (Cohort 2), 9.0 mg/kg (Cohort 3), and 20.0 mg/kg (Cohort 4) or until the maximum tolerated dose (MTD) was identified.
Daily doses of vamorolone (1.0, 3.0, 9.0 and 20.0 mg/kg/day) were given in the morning in a fasted state, daily for 14 days, and PK determined on day 1 (after single dose) and day 14 (after the 14th dose). Consistent with the SAD, mean plasma vamorolone concentrations and dose-related PK parameters increased in a dose related manner (Fig. 3). Log-log plots of the individual subject Cmax and AUC (inf) were linear. Although the slopes ranged from 0.827 to 0.898, the deviation from 1.0 may be a consequence of between-subject variability and not indicative of a less than dose-proportional increase in exposure.

[3] = Clinical safety (treatment-emergent adverse events, MTD, NOAEL), MAD; assay type: in vivo
Method: as §1
After completion of all scheduled safety follow-up visits for a given cohort, the SRC reviewed all available PK and safety data (AEs, physical examination findings, ECGs, vital signs, and clinical laboratory tests) in a blinded manner for the completed cohort prior to making a decision to escalate to the next higher dose level.
Dose escalation in the MAD part was to proceed according to protocol until the MTD was identified. The dose escalation stopping criteria, as listed above in the SAD section, comprised the halting rules for the MAD part. If any of these criteria were met during the 14-day dosing duration in the MAD part, dosing in that cohort was to be halted and no further dose escalation was to occur. If AEs/SAEs occurred more frequently in subjects treated with vamorolone compared to subjects treated with placebo, the SRC was to determine if dose escalation could continue. If dose escalation was terminated, the remaining cohorts could be enrolled to evaluate the safety and PK effects of vamorolone for dose levels between the previously tolerated dose and the dose level at which dose escalation was terminated. Once safety data from additional cohort(s) was assessed, the MTD was defined as the dose level below the dose at which the SRC determined there was an unacceptable risk to subjects.

## C[C@@H]1C[C@H]2[C@@H]3CCC4=CC(=O)C=C[C@]4(C)C3=CC[C@]2(C)[C@@]1(O)C(=O)CO [vamorolone]
[1]; MAD 1.0 mg/kg, Day 1 (predose), baseline
  Blood glucose: 86 ± 1 md/dL
[1]; MAD 1.0 mg/kg, Day 2 predose
  Blood glucose: 87 ± 2 md/dL
[1]; MAD 1.0 mg/kg, Day 3 predose
  Blood glucose: 86 ± 2 md/dL
[1]; MAD 1.0 mg/kg, Day 7 predose
  Blood glucose: 84 ± 2 md/dL
[1]; MAD 1.0 mg/kg, Day 12 predose
  Blood glucose: 83 ± 1 md/dL
[1]; MAD 1.0 mg/kg, Day 14 (predose)
  Blood glucose: 84 ± 1 md/dL
[1]; MAD 1.0 mg/kg, Day 17 (3 days after last dose)
  Blood glucose: 86 ± 1 md/dL
[1]; MAD 1.0 mg/kg, Day 21 follow-up
  Blood glucose: 90 ± 3 md/dL
[1]; MAD 1.0 mg/kg, Day -1, baseline
  Blood glucose: 90 ± 2 md/dL
[1]; MAD 1.0 mg/kg, Screening, baseline
  Blood glucose: 92 ± 1 md/dL
[1]; MAD 3.0 mg/kg, Day 1 (predose), baseline
  Blood glucose: 87 ± 1 md/dL
[1]; MAD 3.0 mg/kg, Day 2 predose
  Blood glucose: 87 ± 1 md/dL
[1]; MAD 3.0 mg/kg, Day 3 predose
  Blood glucose: 84 ± 2 md/dL
[1]; MAD 3.0 mg/kg, Day 7 predose
  Blood glucose: 82 ± 1 md/dL
[1]; MAD 3.0 mg/kg, Day 12 predose
  Blood glucose: 83.1 ± 1.4 md/dL
[1]; MAD 3.0 mg/kg, Day 14 (predose)
  Blood glucose: 81 ± 2 md/dL
[1]; MAD 3.0 mg/kg, Day 17 (3 days after last dose)
  Blood glucose: 84 ± 1 md/dL
[1]; MAD 3.0 mg/kg, Day 21 follow-up
  Blood glucose: 91 ± 2 md/dL
[1]; MAD 3.0 mg/kg, Day -1, baseline
  Blood glucose: 90 ± 1 md/dL
[1]; MAD 3.0 mg/kg, Screening, baseline
  Blood glucose: 90.1 ± 1.5 md/dL
[1]; MAD 9.0 mg/kg, Day 1 (predose), baseline
  Blood glucose: 89 ± 2 md/dL
[1]; MAD 9.0 mg/kg, Day 2 predose
  Blood glucose: 87 ± 1 md/dL
[1]; MAD 9.0 mg/kg, Day 3 predose
  Blood glucose: 88 ± 2 md/dL
[1]; MAD 9.0 mg/kg, Day 7 predose
  Blood glucose: 87 ± 2 md/dL
[1]; MAD 9.0 mg/kg, Day 12 predose
  Blood glucose: 84 ± 2 md/dL
[1]; MAD 9.0 mg/kg, Day 14 (predose)
  Blood glucose: 84 ± 2 md/dL
[1]; MAD 9.0 mg/kg, Day 17 (3 days after last dose)
  Blood glucose: 85 ± 2 md/dL
[1]; MAD 9.0 mg/kg, Day 21 follow-up
  Blood glucose: 88 ± 2 md/dL
[1]; MAD 9.0 mg/kg, Day -1, baseline
  Blood glucose: 89 ± 1 md/dL
[1]; MAD 9.0 mg/kg, Screening, baseline
  Blood glucose: 89 ± 3 md/dL
[1]; MAD 20.0 mg/kg, Day 1 (predose), baseline
  Blood glucose: 87 ± 1 md/dL
[1]; MAD 20.0 mg/kg, Day 2 predose
  Blood glucose: 84 ± 1 md/dL
[1]; MAD 20.0 mg/kg, Day 3 predose
  Blood glucose: 83 ± 1 md/dL
[1]; MAD 20.0 mg/kg, Day 7 predose
  Blood glucose: 82 ± 1 md/dL
[1]; MAD 20.0 mg/kg, Day 12 predose
  Blood glucose: 80 ± 2 md/dL
[1]; MAD 20.0 mg/kg, Day 14 (predose)
  Blood glucose: 80 ± 2 md/dL
[1]; MAD 20.0 mg/kg, Day 17 (3 days after last dose)
  Blood glucose: 81 ± 2 md/dL
[1]; MAD 20.0 mg/kg, Day 21 follow-up
  Blood glucose: 91 ± 3 md/dL
[1]; MAD 20.0 mg/kg, Day -1, baseline
  Blood glucose: 89 ± 1 md/dL
[1]; MAD 20.0 mg/kg, Screening, baseline
  Blood glucose: 90 ± 3 md/dL
[1]; all dose groups SAD and MAD, any time point
  fasting insulin and glucose levels vs placebo: did not differ from placebo
[2]; Day 1 vs Day 14, once daily 14 days
  drug accumulation between daily doses: essentially no drug accumulation between doses
[2]; MAD Day 1, across 1-20 mg/kg/day
  CL/F: 23.7 to 33.7 mL/min/kg
[2]; MAD Day 14, across 1-20 mg/kg/day
  CL/F: 21 to 35.8 mL/min/kg
[3]; MAD 1.0 mg/kg
  subjects experiencing TEAEs: 2 subjects
[3]; MAD 3.0 mg/kg
  subjects experiencing TEAEs: none
[3]; MAD 9.0 mg/kg
  subjects experiencing TEAEs: none
[3]; MAD 20 mg/kg
  subjects experiencing TEAEs: 2 subjects
[3]; MAD up to 20 mg/kg/day
  maximum tolerated dose (MTD): not reached
[3]; any SAD or MAD dose group
  severe adverse events: no severe adverse events
[3]; human, in vivo, oral, highest dose tested, 14 days
  NOAEL at 14 days: 20 mg/kg/day
[3]; one subject, 20 mg/kg/day MAD cohort, dosing halted
  liver finding thought to be drug related: mild elevations of liver enzymes
